According to patent US10695337B2, “Piperidin-4-yl azetidine derivatives as JAK1 inhibitors” (Incyte Corporation, priority 2010, dated 2020):

biological target: human JAK1 (a.a. 837-1142); assay: In vitro JAK kinase assay (HTRF, phosphorylation of a biotinylated peptide), JAK1; format: biochemical; conditions: measured at 1 mM ATP; JAK2 IC50 / JAK1 IC50
Summary of the method: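 N-terminal His-tagged catalytic domains, baculovirus-expressed in insect cells, phosphorylated a biotinylated peptide for 1 hr at room temperature. EDTA stop was followed by SA-APC and Eu-Py20 antibody for 40 minutes, with phosphopeptide read by HTRF.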

Structure (SMILES) | IC50 Ratio JAK2/JAK1
N#CCC1(n2cc(-c3c(C#N)cnc4[nH]ccc34)cn2)CN(C2CCN(C(=O)c3cc(C#N)cc(C#N)c3)CC2)C1 [Example 338, 5-[(4-{3-(cyanomethyl)-3-[4-(5-cyano-1H-pyrrolo[2,3-b]pyridin-4-yl)-1H-pyrazol-1-yl]azetidin-1-yl}piperidin-1-yl)carbonyl]isophthalonitrile] | 7.4
N#CCC1(n2cc(-c3ncnc4[nH]ccc34)cn2)CN(C2CCN(C(=O)c3ccc(-c4cc(F)cc(C#N)c4)c(F)c3)CC2)C1 [Example 128, 4′-[(4-{3-(cyanomethyl)-3-[4-(7H-pyrrolo[2,3-d]pyrimidin-4-yl)-1H-pyrazol-1-yl]azetidin-1-yl}piperidin-1-yl)carbonyl]-2′,5-difluorobiphenyl-3-carbonitrile] | 3.5
N#CCC1(n2cc(-c3ccnc4[nH]ccc34)cn2)CN(C2CCN(C(=O)C3CCC(F)(F)CC3)CC2)C1 [Example 302, {1-{1-[(4,4-difluorocyclohexyl)carbonyl]piperidin-4-yl}-3-[4-(1H-pyrrolo[2,3-b]pyridin-4-yl)-1H-pyrazol-1-yl]azetidin-3-yl}acetonitrile] | 6.5
N#CCC1(n2cc(-c3ncnc4[nH]ccc34)cn2)CN(C2CCN(C(=O)Nc3ccccc3F)CC2)C1 [Example 169, 4-{3-(cyanomethyl)-3-[4-(7H-pyrrolo[2,3-d]pyrimidin-4-yl)-1H-pyrazol-1-yl]azetidin-1-yl}-N-(2-fluorophenyl)piperidine-1-carboxamide] | 5.5
N#CCC1(n2cc(-c3ncnc4[nH]ccc34)cn2)CN(C2CCN(C(=O)c3c(F)cccc3C(F)(F)F)CC2)C1 [Example 45, {1-{1-[2-fluoro-6-(trifluoromethyl)benzoyl]piperidin-4-yl}-3-[4-(7H-pyrrolo[2,3-d]pyrimidin-4-yl)-1H-pyrazol-1-yl]azetidin-3-yl}acetonitrile] | 3.1
N#CCC1(n2cc(-c3ncnc4[nH]ccc34)cn2)CN(C2CCN(C(=O)c3ccnc(C(F)(F)F)c3)CC2)C1 [Example 57, (3-[4-(7H-pyrrolo[2,3-d]pyrimidin-4-yl)-1H-pyrazol-1-yl]-1-{1-[2-(trifluoromethyl)isonicotinoyl]piperidin-4-yl}azetidin-3-yl)acetonitrile] | 3.3
Cc1nc(S(=O)(=O)N2CCC(N3CC(CC#N)(n4cc(-c5ncnc6[nH]ccc56)cn4)C3)CC2)cn1C [Example 259, {1-{1-[(1,2-dimethyl-1H-imidazol-4-yl)sulfonyl]piperidin-4-yl}-3-[4-(7H-pyrrolo[2,3-d]pyrimidin-4-yl)-1H-pyrazol-1-yl]azetidin-3-yl}acetonitrile] | 4.6
COc1cc(F)ccc1C(=O)N1CCC(N2CC(CC#N)(n3cc(-c4ncnc5[nH]ccc45)cn3)C2)CC1 [Example 40, {1-[1-(4-fluoro-2-methoxybenzoyl)piperidin-4-yl]-3-[4-(7H-pyrrolo[2,3-d]pyrimidin-4-yl)-1H-pyrazol-1-yl]azetidin-3-yl}acetonitrile] | 4.8
N#CCC1(n2ccc(-c3ncnc4[nH]ccc34)c2)CN(C2CCN(C(=O)c3ccc(F)c(C(F)(F)F)c3)CC2)C1 [Example 275, {1-{1-[4-fluoro-3-(trifluoromethyl)benzoyl]piperidin-4-yl}-3-[3-(7H-pyrrolo[2,3-d]pyrimidin-4-yl)-1H-pyrrol-1-yl]azetidin-3-yl}acetonitrile] | 3.1
N#CCC1(n2ccc(-c3ncnc4[nH]ccc34)c2)CN(C2CCN(C(=O)c3c(F)cccc3F)CC2)C1 [Example 279, {1-[1-(2,6-difluorobenzoyl)piperidin-4-yl]-3-[3-(7H-pyrrolo[2,3-d]pyrimidin-4-yl)-1H-pyrrol-1-yl]azetidin-3-yl}acetonitrile] | 4.1
N#CCC1(n2cc(-c3ncnc4[nH]ccc34)cn2)CN(C2CC3CCC(C2)N3Cc2c(F)ccc(F)c2Cl)C1 (stereo not drawn) [Example 241, {1-[8-(2-Chloro-3,6-difluorobenzyl)-8-azabicyclo[3.2.1]oct-3-yl]-3-[4-(7H-pyrrolo[2,3-d]pyrimidin-4-yl)-1H-pyrazol-1-yl]azetidin-3-yl}acetonitrile] | 3.8
N#CCC1(n2cc(-c3ncnc4[nH]ccc34)cn2)CN(C2CCN(Cc3ccc4c(c3)OCCO4)CC2)C1 [Example 234, {1-[1-(2,3-dihydro-1,4-benzodioxin-6-ylmethyl)piperidin-4-yl]-3-[4-(7H-pyrrolo[2,3-d]pyrimidin-4-yl)-1H-pyrazol-1-yl]azetidin-3-yl}acetonitrile] | 4.2
N#CCC1(n2cc(-c3ncnc4[nH]ccc34)cn2)CN(C2CCN(C(=O)c3cc(F)cc(C(F)(F)F)c3)CC2)C1 [Example 23, {1-{1-[3-fluoro-5-(trifluoromethyl)benzoyl]piperidin-4-yl}-3-[4-(7H-pyrrolo[2,3-d]pyrimidin-4-yl)-1H-pyrazol-1-yl]azetidin-3-yl}acetonitrile] | 6.7
N#CCC1(n2ccc(-c3ncnc4[nH]ccc34)c2)CN(C2CCN(C(=O)c3nc(C(F)(F)F)cs3)CC2)C1 [Example 346, [3-[3-(7H-Pyrrolo[2,3-d]pyrimidin-4-yl)-1H-pyrrol-1-yl]-1-(1-{[4-(trifluoromethyl)-1,3-thiazol-2-yl]carbonyl}piperidin-4-yl)azetidin-3-yl]acetonitrile] | 5.9
COc1cccc(F)c1CN1CCC(N2CC(CC#N)(n3cc(-c4ncnc5[nH]ccc45)cn3)C2)CC1 [Example 218, {1-[1-(2-fluoro-6-methoxybenzyl)piperidin-4-yl]-3-[4-(7H-pyrrolo[2,3-d]pyrimidin-4-yl)-1H-pyrazol-1-yl]azetidin-3-yl}acetonitrile] | 2.6
N#CCC1(n2cc(-c3ncnc4[nH]ccc34)cn2)CN(C2CCN(Cc3cc(F)cc(F)c3)CC2)C1 [Example 215, {1-[1-(3,5-difluorobenzyl)piperidin-4-yl]-3-[4-(7H-pyrrolo[2,3-d]pyrimidin-4-yl)-1H-pyrazol-1-yl]azetidin-3-yl}acetonitrile] | 5.7
CS(=O)(=O)N1CCC(N2CC(CC#N)(n3ccc(-c4ncnc5[nH]ccc45)c3)C2)CC1 [Example 348, {1-[1-(Methylsulfonyl)piperidin-4-yl]-3-[3-(7H-pyrrolo[2,3-d]pyrimidin-4-yl)-1H-pyrrol-1-yl]azetidin-3-yl}acetonitrile] | 3.2
Cc1noc(C)c1S(=O)(=O)N1CCC(N2CC(CC#N)(n3cc(-c4ncnc5[nH]ccc45)cn3)C2)CC1 [Example 260, {1-{1-[(3,5-dimethylisoxazol-4-yl)sulfonyl]piperidin-4-yl}-3-[4-(7H-pyrrolo[2,3-d]pyrimidin-4-yl)-1H-pyrazol-1-yl]azetidin-3-yl}acetonitrile] | 7.1
N#CCC1(n2cc(-c3ncnc4[nH]ccc34)cn2)CN(C2CCN(C(=O)Nc3cccc(C(F)(F)F)c3)CC2)C1 [Example 166, 4-{3-(cyanomethyl)-3-[4-(7H-pyrrolo[2,3-d]pyrimidin-4-yl)-1H-pyrazol-1-yl]azetidin-1-yl}-N-[3-(trifluoromethyl)phenyl]piperidine-1-carboxamide] | 5.5
Cn1nccc1S(=O)(=O)N1CCC(N2CC(CC#N)(n3cc(-c4ncnc5[nH]ccc45)cn3)C2)CC1 [Example 246, {1-{1-[(1-Methyl-1H-pyrazol-5-yl)sulfonyl]piperidin-4-yl}-3-[4-(7H-pyrrolo[2,3-d]pyrimidin-4-yl)-1H-pyrazol-1-yl]azetidin-3-yl}acetonitrile] | 7.5
CCCOC(=O)N1CCC(N2CC(CC#N)(n3cc(-c4ncnc5[nH]ccc45)cn3)C2)CC1 [Example 386, Propyl 4-{3-(cyanomethyl)-3-[4-(7H-pyrrolo[2,3-d]pyrimidin-4-yl)-1H-pyrazol-1-yl]azetidin-1-yl}piperidine-1-carboxylate] | 7.7
N#CCC1(n2cc(-c3c(F)cnc4[nH]ccc34)cn2)CN(C2CCN(C(=O)Nc3cnccc3C(F)(F)F)CC2)C1 [Example 330, 4-{3-(cyanomethyl)-3-[4-(5-fluoro-1H-pyrrolo[2,3-b]pyridin-4-yl)-1H-pyrazol-1-yl]azetidin-1-yl}-N-[4-(trifluoromethyl)pyridin-3-yl]piperidine-1-carboxamide] | 6.7
N#CCC1(n2cc(-c3ccnc4[nH]ccc34)cn2)CN(C2CCN(C(=O)c3nc(C(F)(F)F)cs3)CC2)C1 [Example 350, [3-[4-(1H-Pyrrolo[2,3-b]pyridin-4-yl)-1H-pyrazol-1-yl]-1-(1-{[4-(trifluoromethyl)-1,3-thiazol-2-yl]carbonyl}piperidin-4-yl)azetidin-3-yl]acetonitrile] | 15.0
N#CCC1(n2cc(-c3ncnc4[nH]ccc34)cn2)CN(C2CCN(C(=O)c3cnc4ccccc4c3)CC2)C1 [Example 88, {3-[4-(7H-pyrrolo[2,3-d]pyrimidin-4-yl)-1H-pyrazol-1-yl]-1-[1-(quinolin-3-ylcarbonyl)piperidin-4-yl]azetidin-3-yl}acetonitrile] | 0.9
COC(=O)c1ccccc1NC(=O)N1CCC(N2CC(CC#N)(n3cc(-c4ncnc5[nH]ccc45)cn3)C2)CC1 [Example 206, methyl 2-{[(4-{3-(cyanomethyl)-3-[4-(7H-pyrrolo[2,3-d]pyrimidin-4-yl)-1H-pyrazol-1-yl]azetidin-1-yl}piperidin-1-yl)carbonyl]amino}benzoate] | 1.6
COc1ncccc1NC(=O)N1CCC(N2CC(CC#N)(n3cc(-c4ccnc5[nH]ccc45)cn3)C2)CC1 [Example 306, 4-{3-(cyanomethyl)-3-[4-(1H-pyrrolo[2,3-b]pyridin-4-yl)-1H-pyrazol-1-yl]azetidin-1-yl}-N-(2-methoxypyridin-3-yl)piperidine-1-carboxamide] | 3.5
N#CCC1(n2cc(-c3ccnc4[nH]ccc34)cn2)CN(C2CCN(C(=O)Nc3ccc(F)cc3Cl)CC2)C1 [Example 305, N-(2-chloro-4-fluorophenyl)-4-{3-(cyanomethyl)-3-[4-(1H-pyrrolo[2,3-b]pyridin-4-yl)-1H-pyrazol-1-yl]azetidin-1-yl}piperidine-1-carboxamide] | 16.0
